By IC50 is commonly meant the concentration at which inhibition is half-maximal. The term EC50 denotes the concentration at which the effect is half-maximal.

Here are results for 23 compounds from patent US20240067657A1, “AMIDO-SUBSTITUTED PYRIDYL COMPOUNDS AND METHODS OF USE THEREOF FOR THE TREATMENT OF HERPESVIRUSES” (Merck Sharp & Dohme LLC, priority 2020, published 2024).

The target in experiment [1] is T1, Human cytomegalovirus DNA polymerase (Human cytomegalovirus, UniProt P08546).
T1 construct: made in house; host or cells: SF21 insect cells (baculovirus vector)
As to the kind of experiment: HCMV polymerase assay (AlphaLISA, IC50). The conditions noted are these: polymerase assay of Example 190. Format: biochemical. A digest of the protocol: (§1)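 Baculovirus-expressed polymerase (HCMV 0.2 nM, VZV 0.4 nM final) preincubated 30 min at room temperature with compound in pH 7.5 HEPES buffer; reaction started with 1.6 nM DIG-primer/template and nM dNTPs including biotin-dUTP, run 60 min at 37° C. Incorporation detected by AlphaLISA; IC50 from 4-parameter fit.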

Experiment [2] concerns the target T2, varicella zoster virus DNA polymerase (Varicella-zoster virus, UniProt P09252).
T2 construct: made in house; host or cells: SF21 insect cells (baculovirus vector)
As to the kind of experiment: VZV polymerase assay (AlphaLISA, IC50). To be noted: polymerase assay of Example 190. Format: biochemical. A digest of the protocol:
as §1

In experiment [3] the test system is HCMV Strain AD169 in MRC-5 cells. As to the kind of experiment: Viral qPCR assay HCMV (V0/V1, V2/V3), EC50. The format is cell-based. A digest of the protocol: (§2)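 Infected cells added to compounds (10-point 3-fold series), ~72 h at 37 °C, then lysed; viral genomes by TaqMan qPCR against plasmid standard, normalized to PPIA in V0/V1 only, EC50 from 4-parameter fit. HCMV AD169, 0.05-0.1 pfu/cell, ± 50% FBS; VZV 0.04-0.1 pfu/cell; HSV-1 F 0.0005-0.004 pfu/cell.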
On the technique in general: Real-time PCR tracks product formation cycle by cycle.

Experiment [4] has as its system VZV in MeWo or MRC5 cells. As to the kind of experiment: Viral qPCR assay VZV (V0/V1, V2/V3), EC50. Format: cell-based. A digest of the protocol: as §2
Experiment [5] has as its system HSV-1 Strain F in Vero or MRC5 cells. As to the kind of experiment: Viral qPCR assay HSV-1 (V0/V1, V2/V3), EC50. Format: cell-based. A digest of the protocol: as §2
The mark [6] stands for this setting: Human betaherpesvirus 5, AD169, MRC5, viral qPCR assay of Example 191, read-out: HCMV Cell (EC50).
The mark [7] stands for this setting: Human alphaherpesvirus 3, MeWo, MEWO cells, 10%, read-out: VZV Cell (EC50) MEWO 10%.
[8] abbreviates: Human alphaherpesvirus 1, Vero, VERO cells, 10%, read-out: HSV1 Cell (EC50) VERO 10%.
Where [9] appears, read: Human alphaherpesvirus 3, MRC5, MRC5 cells, 10%, read-out: VZV Cell (EC50) MRC5 10%.
The mark [10] stands for this setting: Human alphaherpesvirus 1, MRC5, MRC5 cells, 10%, read-out: HSV1 Cell (EC50) MRC5 10%.

Molecules are shown by their SMILES. Read-outs that look alike come from different tables or passages of the source.

T1 sequence (P08546 whole entry): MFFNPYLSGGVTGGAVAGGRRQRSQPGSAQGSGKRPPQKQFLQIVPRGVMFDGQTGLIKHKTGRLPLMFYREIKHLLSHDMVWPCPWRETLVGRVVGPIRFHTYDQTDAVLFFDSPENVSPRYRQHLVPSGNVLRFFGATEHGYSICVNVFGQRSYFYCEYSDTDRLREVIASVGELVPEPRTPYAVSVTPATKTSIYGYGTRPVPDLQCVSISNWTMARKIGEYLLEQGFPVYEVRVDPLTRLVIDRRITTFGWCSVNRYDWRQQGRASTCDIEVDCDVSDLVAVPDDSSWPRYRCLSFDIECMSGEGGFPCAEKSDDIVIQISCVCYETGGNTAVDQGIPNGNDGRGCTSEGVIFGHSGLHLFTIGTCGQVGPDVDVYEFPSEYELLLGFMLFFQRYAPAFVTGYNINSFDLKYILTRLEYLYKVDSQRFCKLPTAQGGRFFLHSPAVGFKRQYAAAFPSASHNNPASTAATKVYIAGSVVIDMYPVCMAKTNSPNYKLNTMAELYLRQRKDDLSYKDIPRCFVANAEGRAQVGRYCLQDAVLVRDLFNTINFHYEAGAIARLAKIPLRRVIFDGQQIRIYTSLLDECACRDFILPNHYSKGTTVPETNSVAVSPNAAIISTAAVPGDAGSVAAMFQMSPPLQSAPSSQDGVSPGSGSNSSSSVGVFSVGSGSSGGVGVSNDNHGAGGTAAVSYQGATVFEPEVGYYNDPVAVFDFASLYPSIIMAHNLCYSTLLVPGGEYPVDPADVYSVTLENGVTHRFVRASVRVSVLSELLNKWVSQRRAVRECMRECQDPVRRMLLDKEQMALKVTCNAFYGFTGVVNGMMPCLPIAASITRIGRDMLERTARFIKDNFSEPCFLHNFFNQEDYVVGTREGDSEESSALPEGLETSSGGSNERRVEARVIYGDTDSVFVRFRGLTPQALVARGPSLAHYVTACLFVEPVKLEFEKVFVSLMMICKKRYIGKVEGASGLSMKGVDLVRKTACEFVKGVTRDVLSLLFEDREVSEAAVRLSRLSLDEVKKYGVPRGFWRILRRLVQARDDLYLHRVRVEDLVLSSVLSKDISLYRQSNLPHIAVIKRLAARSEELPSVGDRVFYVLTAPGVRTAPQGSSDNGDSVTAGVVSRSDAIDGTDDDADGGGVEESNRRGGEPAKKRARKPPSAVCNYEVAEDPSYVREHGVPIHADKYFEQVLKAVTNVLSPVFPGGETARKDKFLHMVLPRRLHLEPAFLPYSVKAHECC
T2 sequence (P09252 whole entry): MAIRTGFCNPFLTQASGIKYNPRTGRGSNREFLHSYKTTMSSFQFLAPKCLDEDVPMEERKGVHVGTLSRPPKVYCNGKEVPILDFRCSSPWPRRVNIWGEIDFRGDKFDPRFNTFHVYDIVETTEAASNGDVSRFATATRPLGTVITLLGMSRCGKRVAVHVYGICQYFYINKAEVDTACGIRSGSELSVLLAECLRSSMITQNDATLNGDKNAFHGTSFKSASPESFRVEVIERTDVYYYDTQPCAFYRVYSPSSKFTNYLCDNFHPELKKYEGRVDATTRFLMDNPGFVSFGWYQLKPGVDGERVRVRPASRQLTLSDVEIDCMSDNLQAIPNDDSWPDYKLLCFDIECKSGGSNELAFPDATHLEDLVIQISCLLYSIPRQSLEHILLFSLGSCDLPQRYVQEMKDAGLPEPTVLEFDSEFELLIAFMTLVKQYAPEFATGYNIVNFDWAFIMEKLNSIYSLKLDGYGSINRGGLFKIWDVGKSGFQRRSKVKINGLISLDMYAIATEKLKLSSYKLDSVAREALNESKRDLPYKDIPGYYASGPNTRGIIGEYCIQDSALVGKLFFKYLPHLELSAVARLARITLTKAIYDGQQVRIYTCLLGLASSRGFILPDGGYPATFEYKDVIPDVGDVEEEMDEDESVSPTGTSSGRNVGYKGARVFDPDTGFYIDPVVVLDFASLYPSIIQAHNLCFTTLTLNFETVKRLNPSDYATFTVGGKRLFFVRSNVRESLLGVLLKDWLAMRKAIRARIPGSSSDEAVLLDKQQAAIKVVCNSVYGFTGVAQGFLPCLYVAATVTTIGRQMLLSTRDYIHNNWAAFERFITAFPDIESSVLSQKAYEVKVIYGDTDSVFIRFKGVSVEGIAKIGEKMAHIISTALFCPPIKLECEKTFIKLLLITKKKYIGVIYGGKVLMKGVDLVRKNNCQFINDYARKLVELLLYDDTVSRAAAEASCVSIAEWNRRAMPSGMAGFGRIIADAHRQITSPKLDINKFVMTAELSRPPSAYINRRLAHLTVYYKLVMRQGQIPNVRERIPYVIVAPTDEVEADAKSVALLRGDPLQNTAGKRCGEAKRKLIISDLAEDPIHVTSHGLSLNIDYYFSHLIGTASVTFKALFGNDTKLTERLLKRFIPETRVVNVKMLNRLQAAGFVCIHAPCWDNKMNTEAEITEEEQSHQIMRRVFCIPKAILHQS

Take `CC(=O)N1CCC(Oc2cc(C(=O)NCc3ccc(Cl)cc3)[n+]([O-])cc2-c2cnn(C(F)F)c2)CC1` [Compound 132]: the figures for the IC50 in experiment [1] and in experiment [2] were 161 nM and 40.3 nM, respectively. Further, the EC50 in experiment [3] (setting [6]) turned out to be 1320 nM; in experiment [4] (setting [7]), 510 nM; in experiment [5] (setting [8]), 401 nM.

For `O=C(NCc1ccc(Cl)cc1)c1cc(O[C@H]2CCN3C(=O)OC[C@@H]3C2)c(CN2CCC(O)CC2)cn1` [Compound 135], the IC50 in experiment [1] is 90 nM; in experiment [2] it was 41.1 nM. Further, the EC50 came to 634 nM in experiment [3] (setting [6]), 344 nM in experiment [4] (setting [7]) and 9210 nM in experiment [5] (setting [8]).

For the compound `CN(CCCO)Cc1cnc(C(=O)NCc2ccc(Cl)cc2)cc1O[C@H]1CCN2C(=O)OC[C@@H]2C1` [Compound 136], the IC50 in experiment [1] worked out at 214 nM; in experiment [2], 152 nM. Further, the EC50 in experiment [3] (setting [6]) was found to be 989 nM; in experiment [4] (setting [7]), 386 nM; in experiment [5] (setting [8]) it was 9260 nM.

Regarding `O=C(NCc1ccc(Cl)cc1)c1cc(O[C@H]2CCN3C(=O)OC[C@@H]3C2)c(CN2CCCOCC2)cn1` [Compound 138], the IC50 in experiment [1] is 65.8 nM; in experiment [2], 13.7 nM. The values for the EC50 in experiment [3] (setting [6]), in experiment [4] (setting [7]) and in experiment [5] (setting [8]) were 296 nM, 198 nM and 420 nM, respectively.

With `O=C(NCc1ccc(Cl)cc1)c1cc(O[C@H]2CCN3C(=O)OC[C@@H]3C2)c(CN2CCSCC2)cn1` [Compound 139], the IC50 in experiment [1] was 33 nM; in experiment [2] it was 13.3 nM. Further, the EC50 in experiment [3] (setting [6]) was determined as 417 nM; in experiment [4] (setting [9]), 1180 nM; in experiment [5] (setting [8]) it was 545 nM.

Turning to `O=C(NCc1ccc(Cl)cc1)c1cc(O[C@H]2CCN3C(=O)OC[C@@H]3C2)c(CNC2CC2)cn1` [Compound 141], the values for the IC50 in experiment [1] and in experiment [2] were 77.5 nM and 44.8 nM, respectively. Also, the EC50 in experiment [3] (setting [6]) was 554 nM; in experiment [4] (setting [9]) it was 2210 nM; in experiment [5] (setting [8]), 287 nM.

With `CN(Cc1cnc(C(=O)NCc2ccc(Cl)cc2)cc1O[C@H]1CCN2C(=O)OC[C@@H]2C1)[C@H]1CCOC1` [Compound 143], the IC50 in experiment [1] is 14.8 nM; in experiment [2], 13.4 nM. Also, the 50% effective concentration (EC50) in experiment [3] (setting [6]) amounted to 253 nM; in experiment [4] (setting [9]), 1270 nM; in experiment [5] (setting [8]), 471 nM.

Regarding `CSc1cnc(C(=O)NCc2ccc(Cl)cc2)cc1O[C@H]1CCN2C(=O)OC[C@@H]2C1` [Compound 147a], the IC50 in experiment [1] was 19 nM; in experiment [2] it was 23.4 nM. In addition, the values for the EC50 in experiment [3] (setting [6]), in experiment [4] (setting [9]) and in experiment [5] (setting [10]) were 245 nM, 622 nM and 414 nM, respectively.

Take `O=C(NCc1ccc(Cl)cc1)c1cc(O[C@H]2CCN3C(=O)OC[C@@H]3C2)c(-c2cnc(C(F)F)o2)cn1` [Compound 148]: the half-maximal inhibitory concentration (IC50) in experiment [1] worked out at 2.53 nM; in experiment [2], 4.47 nM. The concentration for a half-maximal effect (EC50) in experiment [3] (setting [6]) was determined as 163 nM; in experiment [4] (setting [9]), 229 nM; in experiment [5] (setting [10]), 129 nM.

As for `CCc1noc(-c2cnc(C(=O)NCc3ccc(Cl)cc3)cc2O[C@H]2CCN3C(=O)OC[C@@H]3C2)n1` [Compound 149], the IC50 was 16.4 nM in experiment [1] and 6.31 nM in experiment [2]. Further, the EC50 in experiment [3] (setting [6]) was 124 nM; in experiment [4] (setting [9]) it was 269 nM; in experiment [5] (setting [10]), 125 nM.

As for `Cc1cc(-c2cnc(C(=O)NCc3ccc(Cl)cc3)cc2O[C@H]2CCN3C(=O)OC[C@@H]3C2)on1` [Compound 150], the IC50 in experiment [1] was 7.76 nM; in experiment [2], no more than 0.444 nM. Moreover, the EC50 in experiment [3] (setting [6]) turned out to be 110 nM; in experiment [4] (setting [9]) it was 144 nM; in experiment [5] (setting [10]), 78.2 nM.

Turning to `CS(=O)(=O)N1CCC(Oc2cc(C(=O)NCc3ccc(Cl)cc3)ncc2Cl)CC1` [Compound 151], the half-inhibitory concentration (IC50) in experiment [1] came to 238 nM; in experiment [2], 232 nM. Also, the EC50 in experiment [3] (setting [6]) was determined as 5340 nM; in experiment [4] (setting [7]), 1410 nM; in experiment [5] (setting [8]), 1030 nM.

For `O=C(NCc1ccc(Cl)cc1)c1cc(O[C@H]2CCN3C(=O)OC[C@@H]3C2)c(C2CC2O)cn1` (stereo partly drawn) [Compound 154], the IC50 stood at 36.7 nM in experiment [1] and 11.4 nM in experiment [2]. Moreover, the EC50 in experiment [3] (setting [6]) was found to be 255 nM; in experiment [4] (setting [9]), 896 nM; in experiment [5] (setting [10]) it was 662 nM.

For `O=C(NCc1ccc(Cl)cc1)c1cc(O[C@H]2CCN3C(=O)OC[C@@H]3C2)c(/C=C/CO)cn1` [Compound 155], the IC50 in experiment [1] came out at 7.37 nM; in experiment [2] it was 4.71 nM. The concentration giving a half-maximal response (EC50) in experiment [3] (setting [6]) stood at 204 nM; in experiment [4] (setting [9]), 251 nM; in experiment [5] (setting [10]), 243 nM; in experiment [5] (setting [8]), 419 nM.

On to `COC/C=C/c1cnc(C(=O)NCc2ccc(Cl)cc2)cc1O[C@H]1CCN2C(=O)OC[C@@H]2C1` [Compound 155b], for which the IC50 in experiment [1] turned out to be 8.5 nM; in experiment [2] it was 9.56 nM. In addition, the EC50 in experiment [3] (setting [6]) was found to be 380 nM; in experiment [4] (setting [9]), 395 nM; in experiment [5] (setting [10]) it was 263 nM; in experiment [5] (setting [8]), 209 nM.

For the compound `Cn1cc(-c2cnc(C(=O)NCc3ccc(Cl)cc3)cc2OC2CCN3C(=O)OCC3(C)C2)cn1` (stereo not drawn) [Compound 159], the IC50 in experiment [1] was determined as 59.2 nM; in experiment [2] it was 19.3 nM. Further, the figures for the EC50 in experiment [3] (setting [6]), in experiment [4] (setting [7]) and in experiment [5] (setting [8]) were 441 nM, 277 nM and 329 nM, respectively.

In the case of `N#Cc1cnc(C(=O)NCc2ccc(Cl)cc2)cc1O[C@H]1CCN2C(=O)OCC[C@@H]2C1` [Compound 164], the IC50 in experiment [1] turned out to be 18.3 nM; in experiment [2], 2.37 nM. Also, the results for the EC50 in experiment [3] (setting [6]), in experiment [4] (setting [9]) and in experiment [5] (setting [10]) were 436 nM, 684 nM and 469 nM, respectively.

For the compound `CC(=O)N1CC[C@@H](Oc2cc(C(=O)NCc3ccc(Cl)cc3)ncc2-c2cnc(C)o2)C[C@H]1C` [Compound 165], the results for the IC50 in experiment [1] and in experiment [2] were 5.28 nM and 6.25 nM, respectively. Further, the figures for the EC50 in experiment [3] (setting [6]), in experiment [4] (setting [9]) and in experiment [5] (setting [10]) were 141 nM, 138 nM and 122 nM, respectively.

For the compound `O=C(NCc1ccc(Cl)cc1)c1cc(O[C@H]2CCN3C(=O)CC[C@@H]3C2)c(-c2cnn(C(F)F)c2)cn1` [Compound 166], the IC50 came out at 9.49 nM in experiment [1] and 8.58 nM in experiment [2]. The values for the half-maximal effective concentration (EC50) in experiment [3] (setting [6]), in experiment [4] (setting [9]) and in experiment [5] (setting [10]) were 565 nM, 241 nM and 370 nM, respectively.

For the compound `CC(=O)N1CCC(Oc2cc(C(=O)NCc3ccc(Cl)cc3)ncc2-c2cnn(C(F)F)c2)CC1C` (stereo not drawn) [Compound 167], the IC50 in experiment [1] came to 28.6 nM; in experiment [2] it was 8.55 nM. Besides, the EC50 in experiment [3] (setting [6]) turned out to be 198 nM; in experiment [4] (setting [9]), 679 nM; in experiment [5] (setting [10]) it was 423 nM.

With `Cn1cc(-c2cnc(C(=O)NCc3ccc(Cl)cc3)cc2OC2CCC(C#N)CC2)cn1` (stereo not drawn) [Compound 168], the IC50 worked out at 104 nM in experiment [1] and 67.6 nM in experiment [2]. Besides, the results for the EC50 in experiment [3] (setting [6]), in experiment [4] (setting [7]) and in experiment [5] (setting [8]) were 1110 nM, 590 nM and 529 nM, respectively.

Turning to `C[C@@H]1CN(C)CCN1c1cc(C(=O)NCc2ccc(Cl)cc2)ncc1C#N` [Compound 175], the 50% inhibitory concentration (IC50) in experiment [1] came to 48.2 nM; in experiment [2], 76.9 nM. Besides, the EC50 in experiment [3] (setting [6]) is 1220 nM; in experiment [4] (setting [9]), 3320 nM; in experiment [5] (setting [10]), 3390 nM.

Consider `C[C@@H]1CN(C)CCN1c1cc(C(=O)NCc2ccc(Cl)cc2)ncc1OCC(F)(F)F` [Compound 176], for which the IC50 in experiment [1] is 218 nM; in experiment [2], 115 nM. The EC50 was 2480 nM in experiment [3] (Human betaherpesvirus 5, AD169, MRC5, read-out: HCMV Cell (EC50)); 1240 nM in experiment [4] (Human alphaherpesvirus 3, MeWo, read-out: VZV Cell (EC50) MEWO 10%); 2180 nM in experiment [5] (Human alphaherpesvirus 1, Vero, read-out: HSV1 Cell (EC50) VERO 10%).
